From article PMC5513091, “A novel Alzheimer’s disease drug candidate targeting inflammation and fatty acid metabolism” (Alzheimer's Research & Therapy, 2017)

System: cortex metabolites
Assay: Metabolomic analysis of cortex
Assay type: in vivo, mice
Conditions: cortex
Experimental: Metabolomic analyses were conducted at Metabolon (Durham, NC, USA) as described previously. For statistical analyses and data display, any missing values were assumed to be below the limits of detection and imputed with the compound minimum (minimum value imputation). An estimate of the FDR (Q value) was calculated to take into account the multiple comparisons that normally occur in metabolomics-based studies, with Q < 0.05 used as an indication of high confidence in a result. The MetaboAnalyst tool was used to generate heat maps.

Cc1ccc(N(/N=C/c2cccc(OC(F)(F)F)c2)C(=O)C(F)(F)F)c(C)c1 [CAD-31]
mannose-6-phosphate Fold Change (AD+31/AD, p-value 0.9434): 1.05 | cytidine 5'-monophospho-N-acetylneuraminic acid Fold Change (AD+31/AD, p-value 0.9957): 1 | ergothioneine Fold Change (C+31/C, p-value 0.0002): 0.56 | 17-methylstearate Fold Change (C+31/C, p-value 0.0006): 0.54 | phenol sulfate Fold Change (C+31/C, p-value 0.0029): 0.41 | N-delta-acetylornithine Fold Change (C+31/C, p-value 0.0034): 1.51 | gamma-glutamylhistidine Fold Change (C+31/C, p-value 0.0046): 0.55 | 1-palmitoylglycerol (16:0) Fold Change (C+31/C, p-value 0.0049): 0.67 | dihomo-linoleate (20:2n6) Fold Change (C+31/C, p-value 0.0052): 0.53 | linoleoyl ethanolamide Fold Change (C+31/C, p-value 0.0058): 0.52 | arachidate (20:0) Fold Change (C+31/C, p-value 0.0074): 0.59 | pyroglutamine* Fold Change (C+31/C, p-value 0.0076): 1.27 | adenosine 2'-monophosphate (2'-AMP) Fold Change (C+31/C, p-value 0.0085): 1.49 | docosatrienoate (22:3n3) Fold Change (C+31/C, p-value 0.0095): 0.35 | stearate (18:0) Fold Change (C+31/C, p-value 0.01): 0.61 | nonadecanoate (19:0) Fold Change (C+31/C, p-value 0.0112): 0.63 | 1-oleoylglycerol (18:1) Fold Change (C+31/C, p-value 0.0125): 0.6 | 10-nonadecenoate (19:1n9) Fold Change (C+31/C, p-value 0.0132): 0.6 | 3-hydroxybutyrylcarnitine (2) Fold Change (C+31/C, p-value 0.016): 1.78 | adrenate (22:4n6) Fold Change (C+31/C, p-value 0.0161): 0.5 | oleate/vaccenate (18:1) Fold Change (C+31/C, p-value 0.0172): 0.59 | eicosenoate (20:1) Fold Change (C+31/C, p-value 0.0212): 0.61 | lactate Fold Change (C+31/C, p-value 0.0212): 1.26 | palmitate (16:0) Fold Change (C+31/C, p-value 0.0241): 0.65 | margarate (17:0) Fold Change (C+31/C, p-value 0.0267): 0.61 | 2-hydroxydecanoate Fold Change (C+31/C, p-value 0.0327): 0.68 | 1-arachidonylglycerol (20:4) Fold Change (C+31/C, p-value 0.0338): 0.66 | 3-hydroxybutyrate (BHBA) Fold Change (C+31/C, p-value 0.0349): 1.87 | 2-palmitoylglycerol (16:0) Fold Change (C+31/C, p-value 0.035): 0.65 | succinylcarnitine Fold Change (C+31/C, p-value 0.0357): 0.72 | oleoyl-oleoyl-glycerol (18:1/18:1) [2]* Fold Change (C+31/C, p-value 0.0363): 1.12 | acetyl CoA Fold Change (C+31/C, p-value 0.0372): 1.87 | erucate (22:1n9) Fold Change (C+31/C, p-value 0.0376): 0.64 | glycerol 3-phosphate Fold Change (C+31/C, p-value 0.0387): 0.8 | docosadienoate (22:2n6) Fold Change (C+31/C, p-value 0.0388): 0.62 | acetylcarnitine Fold Change (C+31/C, p-value 0.0422): 1.53 | 1-docosahexaenoylglycerol (22:6) Fold Change (C+31/C, p-value 0.0423): 0.64 | 1-stearoyl-GPG (18:0) Fold Change (C+31/C, p-value 0.0449): 0.59 | arachidonoyl ethanolamide Fold Change (C+31/C, p-value 0.0462): 0.86 | glucosamine-6-phosphate Fold Change (C+31/C, p-value 0.0462): 1.4 | glutamate Fold Change (C+31/C, p-value 0.0465): 1.09 | tricosenoate (23:1) Fold Change (C+31/C, p-value 0.0476): 0.64 | mead acid (20:3n9) Fold Change (C+31/C, p-value 0.0477): 0.6 | adenosine 5'-diphosphoribose (ADP-ribose) Fold Change (C+31/C, p-value 0.0695): 1.15 | sedoheptulose-7-phosphate Fold Change (C+31/C, p-value 0.0888): 1.15 | 2-hydroxystearate Fold Change (C+31/C, p-value 0.0897): 0.58 | UDP-N-acetylglucosamine/galactosamine Fold Change (C+31/C, p-value 0.0923): 1.08 | 2-oleoylglycerol (18:1) Fold Change (C+31/C, p-value 0.0938): 0.77 | putrescine Fold Change (C+31/C, p-value 0.0994): 1.2 | 2-methylcitrate/homocitrate Fold Change (C+31/C, p-value 0.1114): 1.09 | 1-palmitoyl-GPG (16:0)* Fold Change (C+31/C, p-value 0.126): 0.57 | mannose-6-phosphate Fold Change (C+31/C, p-value 0.1316): 1.33 | glutamate, gamma-methyl ester Fold Change (C+31/C, p-value 0.1579): 1.35 | anserine Fold Change (C+31/C, p-value 0.1772): 1.18 | gulonate* Fold Change (C+31/C, p-value 0.179): 1.11 | glucose 6-phosphate Fold Change (C+31/C, p-value 0.199): 1.27 | fructose-6-phosphate Fold Change (C+31/C, p-value 0.2317): 1.26 | methylphosphate Fold Change (C+31/C, p-value 0.233): 1.1 | 1-oleoyl-2-linoleoyl-GPC (18:1/18:2)* Fold Change (C+31/C, p-value 0.2649): 0.92 | N-formylmethionine Fold Change (C+31/C, p-value 0.286): 1.07 | acetylphosphate Fold Change (C+31/C, p-value 0.2996): 1.11 | phosphoethanolamine Fold Change (C+31/C, p-value 0.3099): 1.04 | azelate (nonanedioate) Fold Change (C+31/C, p-value 0.3211): 0.81 | methionine Fold Change (C+31/C, p-value 0.3291): 1.08 | coenzyme A Fold Change (C+31/C, p-value 0.3422): 0.88 | arabinose Fold Change (C+31/C, p-value 0.3687): 1.05 | 1-palmitoyl-2-gamma-linolenoyl-GPC (16:0/18:3n6)* Fold Change (C+31/C, p-value 0.3875): 0.94 | 3-sulfo-nervonoyl-galactosylceramide (d18:1/24:1) Fold Change (C+31/C, p-value 0.4046): 0.97 | N-acetylmethionine Fold Change (C+31/C, p-value 0.4061): 0.96 | UDP-galactose Fold Change (C+31/C, p-value 0.4075): 0.86 | N-acetylglucosaminylasparagine Fold Change (C+31/C, p-value 0.4104): 0.96 | prolylglycine Fold Change (C+31/C, p-value 0.4172): 0.96 | 1-stearoyl-GPC (18:0) Fold Change (C+31/C, p-value 0.4215): 1.08 | N-acetylalanine Fold Change (C+31/C, p-value 0.4319): 1.04 | 1-oleoyl-2-arachidonoyl-GPI (18:1/20:4) * Fold Change (C+31/C, p-value 0.4368): 1.04 | 1-(1-enyl-stearoyl)-2-arachidonoyl-GPE (P-18:0/20:4)* Fold Change (C+31/C, p-value 0.4593): 0.98 | UDP-glucose Fold Change (C+31/C, p-value 0.4697): 0.92 | galactose 1-phosphate Fold Change (C+31/C, p-value 0.4772): 1.14 | 1-methylimidazoleacetate Fold Change (C+31/C, p-value 0.4871): 1.07 | cytidine 5'-monophospho-N-acetylneuraminic acid Fold Change (C+31/C, p-value 0.4904): 0.95 | ribose Fold Change (C+31/C, p-value 0.5044): 1.04 | glycerate Fold Change (C+31/C, p-value 0.512): 0.86 | glycerophosphoethanolamine Fold Change (C+31/C, p-value 0.5491): 1.04 | palmitoylcholine Fold Change (C+31/C, p-value 0.5572): 0.92 | 1-stearoyl-2-oleoyl-GPI (18:0/18:1)* Fold Change (C+31/C, p-value 0.5722): 1.05 | sphingomyelin (d18:1/18:1, d18:2/18:0) Fold Change (C+31/C, p-value 0.5944): 1.03 | 5-methylthioadenosine (MTA) Fold Change (C+31/C, p-value 0.6209): 1.02 | 6-phosphogluconate Fold Change (C+31/C, p-value 0.6443): 0.95 | 3-hydroxy-3-methylglutarate Fold Change (C+31/C, p-value 0.6796): 1.02 | 2'-deoxycytidine Fold Change (C+31/C, p-value 0.6852): 1.04 | N-acetylglutamate Fold Change (C+31/C, p-value 0.7525): 0.99 | beta-citrylglutamate Fold Change (C+31/C, p-value 0.7663): 1.03 | O-methyltyrosine Fold Change (C+31/C, p-value 0.8149): 1.04 | N-acetyl-glucosamine 1-phosphate Fold Change (C+31/C, p-value 0.8284): 1.06 | 1-palmitoyl-2-oleoyl-GPS (16:0/18:1) Fold Change (C+31/C, p-value 0.8378): 1.01 | hypoxanthine Fold Change (C+31/C, p-value 0.8444): 1.01 | lysine Fold Change (C+31/C, p-value 0.8761): 1 | hippurate Fold Change (C+31/C, p-value 0.9003): 1.01 | N-acetylneuraminate Fold Change (C+31/C, p-value 0.9027): 1.01 | 1-palmitoyl-2-palmitoleoyl-GPC (16:0/16:1)* Fold Change (C+31/C, p-value 0.9106): 1 | glycerophosphoglycerol Fold Change (C+31/C, p-value 0.9156): 1 | deoxycarnitine Fold Change (C+31/C, p-value 0.9284): 1.02 | mannose Fold Change (C+31/C, p-value 0.9846): 0.96
